{"source": "patent US6197826A", "about": "“α-(2-hydroxyphenyl) nitrone compounds, pharmaceutical compositions containing the same and methods for treating inflammation” (Centaur Pharmaceuticals, Inc., priority 1999, dated 2001)", "key": {"cyclooxygenase 1 (COX-1)": {"test_system": "cyclooxygenase 1 (COX-1)", "settings": "300 μM; COX-1 from ram seminal vesicles", "description": "(§1) In this experiment, nitrones of formula I were tested to determine if they inhibit the enzymes cyclooxygenase 1 (COX-1) and cyclooxygenase 2 (COX-2). The inhibition of COX-1 was measured by incubating arachidonic acid with COX-1 dervied from ram seminal vesicles. The inhibition of COX-2 was measured by incubation of arachidonic acid with COX-2 derived from sheep placenta. These assays are further described in Evans et al., Biochem. Pharmacol., 36:2035, 1987. In each assay, the formation of prostaglandin E2 (PGE2) was measured by spectrophotometric quantitation of malondialdehyde. The compounds to be tested were added to incubation solutions at a concentration of 300 μM."}, "cyclooxygenase 2 (COX-2)": {"test_system": "cyclooxygenase 2 (COX-2)", "settings": "300 μM; COX-2 from sheep placenta", "description": "as §1"}}}
{"smiles": "COc1ccc2c(c1)c(CC(=O)O)c(C)n2C(=O)c1ccc(Cl)cc1", "note": "[indomethacin]", "values": [{"measurement": "inhibition of COX-1", "setting": "cyclooxygenase 1 (COX-1)", "result": "completely inhibits"}, {"measurement": "inhibition of COX-2", "setting": "cyclooxygenase 2 (COX-2)", "result": "completely inhibits"}]}
